Data from the NIST ThermoML archive (doi:10.1021/je400282h).
Numbers after ± are expanded uncertainties.

Settings: Liquid, Ebulliometric method (Recirculating still)

SMILES | vapor or sublimation pressure (391.03 K) [kPa] | vapor or sublimation pressure (373.15 K) [kPa]
CC(=O)O [acetic acid] | 101.32 ± 0.46 | 
O [water] |  | 101.32 ± 0.46
